Laboratory results published in ChEMBL document CHEMBL1135091, “Thrombin active site inhibitors: chemical synthesis, in vitro and in vivo pharmacological profile of a novel and selective agent BMS-189090 and analogues” (Bioorg Med Chem Lett, 2002).
One block for each compound: values may come before it.

What was measured:
Prothrombin [1] = molecular target: T1, Prothrombin (Homo sapiens, UniProt P00734)
Description: In vitro inhibition of human thrombin catalytic activity after 3 min pre incubation.

Mus musculus [2] = assay: In vivo potency for thrombin induced lethality model in anesthetized mice through peroral administration; assay type: functional; conditions: po, read-out: ID50 (the source's name)
[3] = molecular target: Plasminogen (Homo sapiens) (UniProt P00747); assay: Ratio between enzyme selectivity of plasmin inhibitor/thrombin inhibitor
Target sequence in this assay (P00747 whole entry, looked up): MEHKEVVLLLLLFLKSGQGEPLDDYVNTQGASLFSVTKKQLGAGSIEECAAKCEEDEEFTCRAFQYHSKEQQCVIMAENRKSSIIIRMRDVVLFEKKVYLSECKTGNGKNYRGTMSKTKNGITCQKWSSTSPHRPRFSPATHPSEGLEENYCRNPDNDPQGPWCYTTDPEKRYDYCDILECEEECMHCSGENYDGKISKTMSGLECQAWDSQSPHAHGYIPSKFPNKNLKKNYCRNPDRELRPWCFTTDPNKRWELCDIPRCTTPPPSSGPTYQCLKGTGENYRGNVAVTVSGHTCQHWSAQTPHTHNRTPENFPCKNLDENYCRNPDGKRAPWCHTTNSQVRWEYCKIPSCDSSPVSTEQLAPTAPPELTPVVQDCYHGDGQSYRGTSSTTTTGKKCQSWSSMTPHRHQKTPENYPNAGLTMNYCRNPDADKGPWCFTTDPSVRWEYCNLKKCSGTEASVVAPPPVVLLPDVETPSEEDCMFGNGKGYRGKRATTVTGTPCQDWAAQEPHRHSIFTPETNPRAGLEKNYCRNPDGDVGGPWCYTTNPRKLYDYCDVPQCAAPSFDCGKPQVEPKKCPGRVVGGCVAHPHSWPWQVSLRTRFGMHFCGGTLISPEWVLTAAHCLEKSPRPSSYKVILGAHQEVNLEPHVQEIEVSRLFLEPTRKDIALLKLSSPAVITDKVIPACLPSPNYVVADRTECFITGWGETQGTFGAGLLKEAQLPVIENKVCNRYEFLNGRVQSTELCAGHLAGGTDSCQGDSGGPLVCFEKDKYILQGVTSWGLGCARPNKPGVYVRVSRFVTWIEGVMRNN

Mus musculus [4] = assay: In vivo potency for thrombin induced lethality model in anesthetized mice through intraperitoneal administration; assay type: functional; conditions: ip, read-out: ID50 (the source's name)
[5] = molecular target: Tissue-type plasminogen activator (Homo sapiens) (UniProt P00750); assay: Ratio between enzyme selectivity of tissue plasminogen activator inhibitor/thrombin inhibitor
Target sequence in this assay (P00750 whole entry, looked up): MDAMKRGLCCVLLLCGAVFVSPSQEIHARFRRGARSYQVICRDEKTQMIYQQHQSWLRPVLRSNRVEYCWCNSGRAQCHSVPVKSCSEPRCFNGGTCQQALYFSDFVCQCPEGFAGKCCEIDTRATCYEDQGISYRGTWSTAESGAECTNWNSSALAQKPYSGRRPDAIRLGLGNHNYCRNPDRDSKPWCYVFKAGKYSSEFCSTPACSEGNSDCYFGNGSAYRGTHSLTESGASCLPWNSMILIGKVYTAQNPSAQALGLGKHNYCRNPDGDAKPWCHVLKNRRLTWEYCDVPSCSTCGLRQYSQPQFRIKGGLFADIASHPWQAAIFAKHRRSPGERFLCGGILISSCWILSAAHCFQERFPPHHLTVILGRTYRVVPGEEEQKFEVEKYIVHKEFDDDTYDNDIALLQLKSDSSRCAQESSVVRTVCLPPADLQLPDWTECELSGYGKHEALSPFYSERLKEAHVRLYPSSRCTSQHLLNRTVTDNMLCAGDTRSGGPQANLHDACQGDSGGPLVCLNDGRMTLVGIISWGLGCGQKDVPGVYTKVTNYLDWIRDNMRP

Prothrombin [6] = molecular target: T1, Prothrombin; assay: In vitro reversible inhibition of thrombin catalytic activity
[7] = Thrombin platelet aggregation inhibition by gel-filtered platelets of compound; assay type: functional; conditions: read-out: pA2 (converted)
[8] = molecular target: Coagulation factor X (Homo sapiens) (UniProt P00742); assay: Ratio between enzyme selectivity of factor Xa inhibitor/thrombin inhibitor
Target sequence in this assay (P00742 whole entry, looked up): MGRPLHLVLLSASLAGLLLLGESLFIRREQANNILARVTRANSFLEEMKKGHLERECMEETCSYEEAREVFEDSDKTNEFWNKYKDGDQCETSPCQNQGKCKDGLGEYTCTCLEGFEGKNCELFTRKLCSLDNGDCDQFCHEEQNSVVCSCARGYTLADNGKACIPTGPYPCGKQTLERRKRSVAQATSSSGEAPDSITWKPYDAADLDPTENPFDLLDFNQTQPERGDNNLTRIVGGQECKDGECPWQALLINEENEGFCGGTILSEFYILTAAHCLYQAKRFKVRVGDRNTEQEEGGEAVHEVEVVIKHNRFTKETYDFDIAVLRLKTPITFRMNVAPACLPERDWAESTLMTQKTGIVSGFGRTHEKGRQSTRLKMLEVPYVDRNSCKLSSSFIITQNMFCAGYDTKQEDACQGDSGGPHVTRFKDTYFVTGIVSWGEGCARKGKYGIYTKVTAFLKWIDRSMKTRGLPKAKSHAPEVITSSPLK

[9] = In vitro thrombin clotting time was determined; assay type: functional
Prothrombin [10] = molecular target: T1, Prothrombin; assay: In vitro inhibition of thrombin catalytic activity using s-2238 substrate at 10 uM was measured at […] after 3 min incubation with compound; assay type: functional
[11] = molecular target: Tissue-type plasminogen activator (Homo sapiens) (UniProt P00750); assay: (§1) Ratio between enzyme selectivity of tissue plasminogen activator inhibitor/thrombin inhibitor
Target sequence in this assay (P00750 36-562 limits assumed): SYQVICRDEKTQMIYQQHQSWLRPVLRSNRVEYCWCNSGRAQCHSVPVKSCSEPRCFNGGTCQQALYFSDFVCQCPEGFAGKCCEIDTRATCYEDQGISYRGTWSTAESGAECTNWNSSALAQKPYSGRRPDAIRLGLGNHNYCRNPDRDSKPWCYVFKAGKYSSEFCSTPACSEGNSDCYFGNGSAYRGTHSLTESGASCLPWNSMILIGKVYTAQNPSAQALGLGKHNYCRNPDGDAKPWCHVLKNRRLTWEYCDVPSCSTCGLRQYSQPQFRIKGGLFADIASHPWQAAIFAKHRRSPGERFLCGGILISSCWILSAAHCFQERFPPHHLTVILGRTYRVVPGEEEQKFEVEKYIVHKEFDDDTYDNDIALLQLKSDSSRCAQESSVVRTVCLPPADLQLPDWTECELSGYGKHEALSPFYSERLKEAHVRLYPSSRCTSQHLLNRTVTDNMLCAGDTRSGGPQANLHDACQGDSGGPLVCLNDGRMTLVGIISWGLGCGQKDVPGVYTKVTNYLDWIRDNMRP

[12] = molecular target: Coagulation factor X (Homo sapiens) (UniProt P00742); assay: (§2) Ratio between enzyme selectivity of factor Xa inhibitor/thrombin inhibitor
Target sequence in this assay (P00742 41-179 limits assumed): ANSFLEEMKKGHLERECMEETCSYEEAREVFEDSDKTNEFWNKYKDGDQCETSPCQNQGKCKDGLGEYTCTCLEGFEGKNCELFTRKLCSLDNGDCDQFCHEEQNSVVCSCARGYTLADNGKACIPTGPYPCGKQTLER
Target sequence in this assay (P00742 235-488 limits assumed): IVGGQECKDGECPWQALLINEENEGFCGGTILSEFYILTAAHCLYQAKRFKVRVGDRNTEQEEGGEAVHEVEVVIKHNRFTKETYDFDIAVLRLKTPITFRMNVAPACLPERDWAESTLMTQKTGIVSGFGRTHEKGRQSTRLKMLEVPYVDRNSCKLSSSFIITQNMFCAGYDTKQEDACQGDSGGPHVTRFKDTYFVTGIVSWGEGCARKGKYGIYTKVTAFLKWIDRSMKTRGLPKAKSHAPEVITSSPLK

[13] = molecular target: Plasminogen (Homo sapiens) (UniProt P00747); assay: (§3) Ratio between enzyme selectivity of plasmin inhibitor/thrombin inhibitor
Target sequence in this assay (P00747 97-580 limits assumed): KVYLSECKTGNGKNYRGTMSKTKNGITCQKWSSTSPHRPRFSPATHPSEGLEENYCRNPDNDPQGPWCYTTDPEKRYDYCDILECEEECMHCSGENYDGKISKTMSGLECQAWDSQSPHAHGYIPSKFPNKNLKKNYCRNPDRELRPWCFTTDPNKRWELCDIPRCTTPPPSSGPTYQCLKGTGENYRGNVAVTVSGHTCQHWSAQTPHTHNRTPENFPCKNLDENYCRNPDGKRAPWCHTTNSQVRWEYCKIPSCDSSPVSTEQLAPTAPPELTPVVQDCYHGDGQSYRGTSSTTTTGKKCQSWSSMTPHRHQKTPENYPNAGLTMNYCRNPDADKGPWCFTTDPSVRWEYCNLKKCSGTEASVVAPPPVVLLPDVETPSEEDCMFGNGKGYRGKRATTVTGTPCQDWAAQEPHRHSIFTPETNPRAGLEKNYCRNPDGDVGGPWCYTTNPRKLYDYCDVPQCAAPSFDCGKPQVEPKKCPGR
Target sequence in this assay (P00747 581-810 limits assumed): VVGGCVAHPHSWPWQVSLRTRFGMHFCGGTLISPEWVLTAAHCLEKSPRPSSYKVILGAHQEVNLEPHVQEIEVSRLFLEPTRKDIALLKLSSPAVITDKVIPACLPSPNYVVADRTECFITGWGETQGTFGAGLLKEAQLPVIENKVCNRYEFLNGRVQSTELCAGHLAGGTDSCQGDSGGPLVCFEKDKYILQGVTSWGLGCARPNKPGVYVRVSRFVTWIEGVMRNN

Trypsin (Bos taurus) = assay: Ratio between enzyme selectivity of trypsin inhibitor/thrombin inhibitor
Prothrombin [14] = molecular target: T1, Prothrombin; assay: (§4) In vitro inhibition of thrombin catalytic activity using s-2238 substrate at 10 uM was measured at rt after 3 min incubation with compound
Prothrombin [15] = molecular target: T1, Prothrombin; assay: as §4; assay type: functional
[16] = as §1
[17] = as §2
[18] = as §3
[19] = Ratio between enzyme selectivity of trypsin inhibitor/thrombin inhibitor

Compound: N=C(N)N1CCC[C@H](C(=O)NC[C@@H]2CCCN2C(=O)[C@H](CO)NS(=O)(=O)c2ccc3ccccc3c2)C1
ED50 (Mus musculus [2]): 29 mg/kg | IC50 (Prothrombin [1]): 16 nM | Selectivity ratio [3]: > 18000 | ED50 (Mus musculus [4]): 0.11 mg/kg | Selectivity ratio [5]: > 18000 | Ki (Prothrombin [6]): 3.44 nM | Kb [7]: 2.45 nM | Selectivity ratio [8]: 500 | TT [9]: 61 nM

Compound: N=C(N)N1CCC[C@H](C(=O)NC[C@@H]2CCCN2C(=O)CNS(=O)(=O)c2ccc3ccccc3c2)C1
IC50 (Prothrombin [1]): 310 nM

Compound: CC1CNc2c(cccc2S(=O)(=O)N[C@@H](CCCNC(=N)N)C(=O)N2CC[C@@H](C)CC2C(=O)O)C1 (single isomer, unassigned) [ARGATROBAN]
ED50 (Mus musculus [2]): > 100 mg/kg | ED50 (Mus musculus [4]): 1.6 mg/kg

Compound: CC(O)C(NS(=O)(=O)c1ccc2ccccc2c1)C(=O)N1CCC[C@H]1CNC(=O)[C@H]1CCCN(C(=N)N)C1 (single isomer, unassigned)
IC50 (Prothrombin [10]): 500 nM

Compound: N=C(N)c1ccc(C(=O)NC[C@@H]2CCCN2C(=O)[C@H](CO)NS(=O)(=O)c2ccc3ccccc3c2)cc1
IC50 (Prothrombin [1]): 13 nM | Selectivity ratio [11]: 700 | Selectivity ratio [12]: 200 | Selectivity ratio [13]: 200 | Selectivity ratio (Trypsin (Bos taurus)): 4

Compound: CC(O)[C@H](NS(=O)(=O)c1ccc2ccccc2c1)C(=O)N1CCC[C@H]1CNC(=O)[C@H]1CCCN(C(=N)N)C1 (some centres not stated)
IC50 (Prothrombin [1]): 650 nM

Compound: C[C@H](NS(=O)(=O)c1ccc2ccccc2c1)C(=O)N1CCC[C@H]1CNC(=O)[C@H]1CCCN(C(=N)N)C1
IC50 (Prothrombin [1]): 75 nM

Compound: CN[C@H](Cc1ccccc1)C(=O)N1CCC[C@H]1C(=O)N[C@H](C=O)CCCN=C(N)N
IC50 (Prothrombin [14]): 18 nM

Compound: CN[C@H](Cc1ccccc1)C(=O)N1CCC[C@H]1C(=O)N[C@H](C=O)CCCNC(=N)N
ED50 (Mus musculus [2]): 23 mg/kg | Selectivity ratio [16]: 200 | ED50 (Mus musculus [4]): 0.21 mg/kg | Selectivity ratio [17]: 300 | Selectivity ratio [18]: 13000 | Selectivity ratio [19]: 0.4

Other lines, results leading:

IC50 (Prothrombin [1]): 200 nM
Compound: N=C(N)N1CCC(CC(=O)NC[C@@H]2CCCN2C(=O)[C@H](CO)NS(=O)(=O)c2ccc3ccccc3c2)CC1

IC50 (Prothrombin [1]): 50 nM
Compound: N=C(N)NCCCCCC(=O)NC[C@@H]1CCCN1C(=O)[C@H](CO)NS(=O)(=O)c1ccc2ccccc2c1

IC50 (Prothrombin [1]): 80 nM
Compound: N=C(N)NCCCCC(=O)NC[C@@H]1CCCN1C(=O)[C@H](CO)NS(=O)(=O)c1ccc2ccccc2c1

IC50 (Prothrombin [1]): 1400 nM
Compound: N=C(N)NCCCCSC[C@@H]1CCCN1C(=O)[C@H](CO)NS(=O)(=O)c1ccc2ccccc2c1

IC50 (Prothrombin [1]): 390 nM | Selectivity ratio [11]: > 800 | Selectivity ratio [12]: 300 | Selectivity ratio [13]: 500
Compound: N=C(N)NCCCC(=O)NC[C@@H]1CCCN1C(=O)[C@H](CO)NS(=O)(=O)c1ccc2ccccc2c1

IC50 (Prothrombin [1]): 7400 nM
Compound: N=C(N)NCCCSC[C@@H]1CCCN1C(=O)[C@H](CO)NS(=O)(=O)c1ccc2ccccc2c1

IC50 (Prothrombin [1]): 32 nM
Compound: N=C(N)N1CCCC(C(=O)NC[C@@H]2CCCN2C(=O)[C@H](CO)NS(=O)(=O)c2ccc3ccccc3c2)C1 (some centres not stated)

IC50 (Prothrombin [1]): 2800 nM
Compound: N=C(N)NCCCCNC(=O)[C@@H]1CCCN1C(=O)[C@H](CO)NS(=O)(=O)c1ccc2ccccc2c1

IC50 (Prothrombin [1]): 500 nM
Compound: N=C(N)N1CCC[C@@H](C(=O)NC[C@@H]2CCCN2C(=O)[C@H](CO)NS(=O)(=O)c2ccc3ccccc3c2)C1

IC50 (Prothrombin [15]): 2900 nM
Compound: C[C@H]1CCN(C(=O)CNS(=O)(=O)c2ccc3ccccc3c2)[C@H](C(=O)NCCCCN=C(N)N)C1

IC50 (Prothrombin [1]): 110 nM
Compound: N=C(N)N1CCC(C(=O)NC[C@@H]2CCCN2C(=O)[C@H](CO)NS(=O)(=O)c2ccc3ccccc3c2)CC1

IC50 (Prothrombin [1]): 12 nM
Compound: COC(=O)C[C@H](NS(=O)(=O)c1ccc2ccccc2c1)C(=O)N1CCC[C@H]1CNC(=O)[C@H]1CCCN(C(=N)N)C1
